Key:
IRS-2 = test: Immunoblotting after transfection of melanoma cells; assay type: cell-based
Procedure: (§1) Optimal cell numbers were transfected using Lipofectamine 2000 (Invitrogen) with miR-7-5p (SEQ ID NO: 1; synthesised by Ambion) or miR-NC precursor molecules (hereinafter “miR-NC”; Ambion AM17110) at final concentrations ranging from 1-30 nM. For siRNA transfections, Silencer Select siRNAs (Invitrogen) Negative Control No. 1 (si-NC; 4390843), si-IRS-2 #1 (s16486), si-IRS-2 #2 (s16487) were transfected using Lipofectamine 2000 (Invitrogen) according to the manufacturer's protocol. Cells were harvested 24 hours later for RNA or 2-3 days after transfection for protein extraction.
(§2) Protein was harvested with Cytoplasmic Extract Buffer (CEB)-containing PhosSTOP phosphatase inhibitors (Roche; New South Wales, Australia) and Complete EDTA-free protease inhibitors (Roche). Cell lysates were frozen at −80° C. overnight, cleared by centrifugation at 13,000×g for 5 min, and supernatants collected. Total protein concentrations were determined by Bio-Rad protein assay (Bio-Rad; New South Wales, Australia) as per manufacturer's instructions and using a FLUOstar OPTIMA microplate reader.
(§3) Fifteen μg of total protein samples were resolved on NuPAGE NO VEX 4-12% Bis-Tris gels (Invitrogen) and transferred to polyvinylidene fluoride (PVDF) western blotting membranes (Roche). The blots were blocked for 1 hour with Odyssey Blocking Buffer (Millennium Science, Victoria, Australia) and incubated overnight at 4° C. with anti-IGF1R, anti-phospho-IGF1R, anti-IRS-1, anti-IRS-2, anti-phospo-IRS-2, anti-ERK 1/2, anti-phospho-ERK 1/2, anti-Akt, anti-phospho-Akt (Ser-473), anti-PAK1 (all from Cell Signaling Technology, Beverly, Mass.), or anti-FAK (Santa Cruz Biotechnology), anti-phospho-IRS-2 (Ser-731; Abeam, Cambridge, Mass.), or anti-β-actin (Abcam), followed by incubation with infrared-conjugated secondary antibodies for 1 hour at room temperature. The membranes were scanned with an Odyssey SA scanner to visualize protein expression (LICOR Biosciences, Lincoln, Nebr.).

P-ERK 1/2 = test: as above; assay type: cell-based; conditions: A2058; 15 nM, 3 days post-transfection
Procedure: as §1, §2, §3

IGF1R = test: as above; assay type: cell-based; conditions: melanoma cell lines; 15 nM, 3 days post-transfection, vs miR-NC
Procedure: as §1, §2, §3

PAK1 = test: as above; assay type: cell-based
Procedure: as §1, §2, §3

P-IGF1R = test: as above; assay type: cell-based; conditions: 15 nM, 3 days post-transfection
Procedure: as §1, §2, §3

P-Akt = test: as above; assay type: cell-based; conditions: SK-MEL-28, WM266-4 and MM96L; 15 nM, 3 days post-transfection
Procedure: as §1, §2, §3

IRS-1 = test: as above; assay type: cell-based; conditions: 15 nM, 3 days post-transfection
Procedure: as §1, §2, §3

FAK = test: as above; assay type: cell-based; conditions: WM266-4 and A2058; 30 nM, protein harvested at time of migration assay (48 hours)
Procedure: as §1, §2, §3

P-IRS-2 = test: as above; assay type: cell-based
Procedure: as §1, §2, §3

WM266-4 melanoma cells [1] = test: Cell viability assay (MTS) after miRNA transfection, with or without drug; Bliss synergy analysis; conditions: MTS assay, data not shown
melanoma cell lines = test: Cell viability assay (MTS) after miRNA transfection; assay type: cell-based; conditions: melanoma cells
Procedure: Cells were seeded in 96-well plates at a density of 2.5×10^3 cells per well and transfected with miRNA precursor molecules as above. Cell viability was measured 5 days after transfection using CellTitre 96 Aqueous One Solution Cell Proliferation Assay Kit (MTS assay) and a FLUOstar OPTIMA microplate reader.

SK-MEL-28 melanoma cells = test: Cell viability assay (MTS) after miRNA transfection, with or without drug; Bliss synergy analysis; conditions: MTS assay, data not shown
1205Lu melanoma cells [2] = test: xCELLigence real-time cell invasion assay (Matrigel); assay type: cell-based; conditions: further study, 20-25 hour period
Source text: (§4) Cell migration and invasion was monitored with a Real-Time Cell Analyser dual-plate (RTCA DP) xCELLigence System (Roche Applied Science; Mannheim, Germany). This instrument employs cellular migration plates (CIM-plate 16) which contain microelectronic sensors on the underside of an 8 μm microporous polyethylene terephthalate (PET) membrane of a Boyden-like upper chamber and a lower chamber containing media or chemoattractant. As cells migrate or invade from the upper chamber to the lower chamber they interact with the sensors causing an increase in electrical impedance. Changes in cell impedance over time relates to a change in the number of cells interacting with the sensors, allowing real-time measurement of cell migration as a cell index value. […] After 48 h incubation cells were trypsinised, resuspended in serum free media and seeded into the upper chamber of CIM-plates. The lower chambers were filled with media containing 10% FBS (chemoattractant) or serum free media as a control. Migration was monitored over a 24 hour period with impedance measurements every 15 min. For invasion assays, the CIM-plates were coated with Matrigel (BD Biosciences; diluted at a ratio of 1:20 in serum free medium) approximately 4 hours prior to seeding cells.

WM266-4 melanoma cells [3] = test: as above; assay type: cell-based; conditions: further study, 20-25 hour period
Source text: as §4

A2058 melanoma cells [4] = test: as above; assay type: cell-based; conditions: further study, 20-25 hour period
Source text: as §4

A375 melanoma cells [5] = test: as above; assay type: cell-based; conditions: further study, 20-25 hour period
Source text: as §4

MM96L melanoma cells = test: Cell viability assay (MTS) after miRNA transfection, with or without drug; Bliss synergy analysis; conditions: MTS assay 5 days post-transfection
Procedure: (§5) Cells were seeded in 96-well plates at a density of 2.5×10^3 cells per well and transfected with miRNA precursor molecules as above. Cell viability was measured 5 days after transfection using CellTitre 96 Aqueous One Solution Cell Proliferation Assay Kit (MTS assay) and a FLUOstar OPTIMA microplate reader. For synergy analysis between drugs and miR-7-5p, cells were plated as above and drug or DMSO was added 3 days after transfection with miR-7-5p or miR-NC for 4 days, at which time cell viability was measured (7 days after transfection).
(§6) Statistical significance was calculated using Student's t test (one-tailed, unpaired) and the level of significance was set at p<0.05. Drug sensitivity (IC50) was calculated using GraphPad Software (GraphPad Prism, version 5.04). The Bliss additivism model was used for synergy analysis. […] Here, Ebliss is the fractional inhibition expected if the combination of miR-7-5p and drug B was exactly additive. If the experimentally measured fractional inhibition is greater than Ebliss, the combination is synergistic.

A2058 melanoma cells [6] = test: as above; conditions: MTS assay 5 days post-transfection
Procedure: as §5, §6

IRS-2 mRNA = test: RT-qPCR of IRS-2 mRNA after transfection; assay type: cell-based; conditions: WM266-4 and A2058; 24 hours after transfection, normalised to GAPDH, vs miR-NC
Procedure: as §1

1205Lu melanoma cells [7] = test: xCELLigence real-time cell migration assay; assay type: cell-based; conditions: further study, 20-25 hour period
Source text: as §4

WM266-4 melanoma cells [8] = test: xCELLigence real-time cell migration assay; assay type: cell-based
Source text: as §4

A2058 melanoma cells [9] = test: xCELLigence real-time cell migration assay; assay type: cell-based
Source text: as §4

A375 melanoma cells [10] = test: xCELLigence real-time cell migration assay; assay type: cell-based; conditions: further study, 20-25 hour period
Source text: as §4

[11] = WM266-4 and A2058, 30 nM, protein harvested at time of migration assay (48 hours)
[12] = WM266-4 and A2058, 72 hours after transfection, vs miR-NC
[13] = further study, 20-25 hour period

Substance: miR-7-5p: Synthetic miRNA precursor molecules corresponding to human miR-7-5p (Ambion, PM10047); SEQ ID NO: 1 (UGGAAGACUAGUGAUUUUGUUGU; synthetic precursor duplex form, further chemistry not given here; listed as Homo sapiens)
- IRS-2 expression (IRS-2; A2058, 15 nM, 3 days post-transfection): reduced
- IRS-2 expression (IRS-2; [11]): reduction
- expression of IRS-2 protein (IRS-2; [12]): reduced
- P-ERK 1/2 (P-ERK 1/2): downregulated
- IGF1R expression (IGF1R): No change
- protein level of PAK1 (PAK1; SK-MEL-28, WM266-4, MM96L and A2058, 15 nM, 3 days post-transfection, vs miR-NC): reductions
- PAK1 expression (PAK1; [11]): reduction
- IGF1R phosphorylation (P-IGF1R; A2058): decreased
- IGF1R phosphorylation (P-IGF1R; MM96L): increased
- IGF1R phosphorylation (P-IGF1R; SK-MEL-28): did not change
- P-Akt (P-Akt): downregulated
- IRS-1 expression (IRS-1; A2058): decrease
- IRS-1 expression (IRS-1; SK-MEL-28 and WM266-4): modest increase
- FAK expression (FAK): reduction
- IRS-2 phosphorylation (P-IRS-2; SK-MEL-28, 15 nM, 3 days post-transfection): reduced
- active form of IRS-2 (P-IRS-2) (P-IRS-2; [12]): reduced
- cell viability compared with miR-NC (WM266-4 melanoma cells [1]): significantly reduced
- final miR-7-5p concentration at which viability was significantly reduced (melanoma cell lines): 1 nM
- cell viability compared with miR-NC (SK-MEL-28 melanoma cells): significantly reduced
- rate of cell invasion compared with miR-NC (1205Lu melanoma cells [2]): significantly reduced, or even blocked
- rate of cell invasion compared with miR-NC (WM266-4 melanoma cells [3]): significantly reduced, or even blocked
- rate of cell invasion compared with miR-NC (A2058 melanoma cells [4]): significantly reduced, or even blocked
- rate of cell invasion compared with miR-NC (A375 melanoma cells [5]): significantly reduced, or even blocked
- cell viability compared with miR-NC (MM96L melanoma cells): significantly reduced
- cell viability compared with miR-NC (A2058 melanoma cells [6]): significantly reduced
- levels of IRS-2 mRNA (IRS-2 mRNA): significantly decreased
- rate of cell migration compared with miR-NC (1205Lu melanoma cells [7]): significantly reduced, or even blocked
- cell migration compared with miR-NC (WM266-4 melanoma cells [8]; 30 nM, seeded 48 hours after transfection, monitored 24 hours, data not shown): significantly inhibited
- rate of cell migration compared with miR-NC (WM266-4 melanoma cells [8]; [13]): significantly reduced, or even blocked
- cell migration compared with miR-NC (A2058 melanoma cells [9]; 30 nM, seeded 48 hours after transfection, monitored 24 hours): significantly inhibited
- rate of cell migration compared with miR-NC (A2058 melanoma cells [9]; [13]): significantly reduced, or even blocked
- rate of cell migration compared with miR-NC (A375 melanoma cells [10]): significantly reduced, or even blocked
